Data as given in patent US7858620B2, “Cyanoisoquinoline” (H. Lundbeck A/S, priority 2007, dated 2010).

target: T1, PDE10A enzyme (Homo sapiens, UniProt Q9Y233); assay: PDE10A inhibition assay, SPA; type: biochemical; conditions: column head 2,1334003; unit inferred, nM
T1 construct: made in house; host or cells: E. coli BL21(DE3)
Method: Active PDE10A enzyme is prepared in a number of ways for use in PDE assays (Loughney, K. et al. Gene 1999, 234, 109-117; Fujishige, K. et al. Eur J Biochem. 1999, 266, 1118-1127 and Soderling, S. et al. Proc. Natl. Acad. Sci. 1999, 96, 7071-7076). PDE10A can be expressed as full-length proteins or as truncated proteins, as long as they express the catalytic domain. PDE10A can be prepared in different cell types, for example insect cells or E. coli. An example of a method to obtain catalytically active PDE10A is as follows: The catalytic domain of human PDE10A (amino acids 440-779 from the sequence with accession number NP 006652) is amplified from total human brain total RNA by standard RT-PCR and is cloned into the BamH1 and Xho1 sites of the pET28a vector (Novagen). Expression in coli is performed according to standard protocols. Briefly, the expression plasmids are transformed into the BL21(DE3) E. coli strain, and 50 mL cultures inoculated with the cells allowed to grow to an OD600 of 0.4-0.6 before protein expression is induced with 0.5 mM IPTG. Following induction, the cells are incubated overnight at room temperature, after which the cells are collected by centrifugation. Cells expressing PDE10A are resuspended in 12 mL (50 mM TRIS-HCl-pH8.0, 1 mM MgCl2 and protease inhibitors). The cells are lysed by sonication, and after all cells are lysed, TritonX100 is added according to Novagen protocols.
PDE10A and Pde3A assays can for example be performed as follows: PDE10A and Pde3A assays are performed in 60 uL samples containing a fixed amount of the relevant PDE enzyme (sufficient to convert 20-25% of the cyclic nucleotide substrate), a buffer (50 mM HEPES7.6; 10 mM MgCl2; 0.02% Tween20), 0.1 mg/ml BSA, 225 pCi of ^3H-labelled cyclic nucleotide substrate, tritium labeled cAMP to a final concentration of 5 nM and varying amounts of inhibitors. Reactions are initiated by addition of the cyclic nucleotide substrate, and reactions are allowed to proceed for one hr at room temperature before being terminated through mixing with 15 uL 8 mg/mL yttrium silicate SPA beads (Amersham). The beads are allowed to settle for one hr in the dark before the plates are counted in a Wallac 1450 Microbeta counter. The measured signal can be converted to activity relative to an uninhibited control (100%) and IC50 values can be calculated using the Xlfit extension to EXCEL.

T1 sequence (Q9Y233 716-1055): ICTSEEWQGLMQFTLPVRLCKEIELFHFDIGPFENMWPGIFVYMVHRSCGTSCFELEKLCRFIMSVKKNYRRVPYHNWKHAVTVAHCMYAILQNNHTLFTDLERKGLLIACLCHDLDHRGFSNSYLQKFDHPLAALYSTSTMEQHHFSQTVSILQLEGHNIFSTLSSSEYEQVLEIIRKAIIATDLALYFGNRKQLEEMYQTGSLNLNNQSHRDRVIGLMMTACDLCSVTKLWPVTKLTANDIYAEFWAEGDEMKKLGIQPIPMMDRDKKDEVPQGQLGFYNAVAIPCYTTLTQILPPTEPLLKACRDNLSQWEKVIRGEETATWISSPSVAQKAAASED

| Compound | IC50 [nM] |
| --- | --- |
| COc1cccc(C2CN(c3ncc(C#N)c4cc(OC)c(OC)cc34)CCN2)c1 (single isomer, unassigned; (+)) [Compound 23, (+)-6,7-Dimethoxy-1-[3-(3-methoxy-phenyl)-piperazin-1-yl]-isoquinoline-4-carbonitrile] | 1300 |
| COc1cccc(C2CN(c3ncc(C#N)c4cc(OC)c(OC)cc34)CCN2)c1 (single isomer, unassigned; (-)) [Compound 24, (−)-6,7-Dimethoxy-1-[3-(3-methoxy-phenyl)-piperazin-1-yl]-isoquinoline-4-carbonitrile] | 27 |
| COc1cc2c(C#N)cnc(N3CCNC(c4ccc(F)cc4)C3)c2cc1OC (stereo not shown) [Compound 1, 1-[3-(4-Fluoro-phenyl)-piperazin-1-yl]-6,7-dimethoxy-isoquinoline-4-carbonitrile] | 80 |
| COc1cccc(C2CN(c3ncc(C#N)c4cc(OC)c(OC)cc34)CCN2)c1 (stereo not shown) [Compound 2, 6,7-Dimethoxy-1-[3-(3-methoxy-phenyl)-piperazin-1-yl]-isoquinoline-4-carbonitrile] | 320 |
| COc1cccc(C2CN(c3nc(C)c(C#N)c4cc(OC)c(OC)cc34)CCN2)c1 (stereo not shown) [Compound 3, 6,7-Dimethoxy-1-[3-(3-methoxy-phenyl)-piperazin-1-yl]-3-methyl-isoquinoline-4-carbonitrile] | 240 |
| COc1cc2c(C#N)cnc(N3CCNC(c4cccc5ccccc45)C3)c2cc1OC (stereo not shown) [Compound 4, 6,7-Dimethoxy-1-(3-naphthalen-1-yl-piperazin-1-yl)-isoquinoline-4-carbonitrile] | 78 |
| COc1ccc(C2CN(c3ncc(C#N)c4cc(OC)c(OC)cc34)CCN2)cc1 (stereo not shown) [Compound 5, 6,7-Dimethoxy-1-[3-(4-methoxy-phenyl)-piperazin-1-yl]-isoquinoline-4-carbonitrile] | 54 |
| COc1cc2c(C#N)cnc(N3CCNC(c4ccccc4OC)C3)c2cc1OC (stereo not shown) [Compound 6, 6,7-Dimethoxy-1-[3-(2-methoxy-phenyl)-piperazin-1-yl]-isoquinoline-4-carbonitrile] | 420 |
| COc1cc2c(C#N)cnc(N3CCNC(c4ccc(N(C)C)cc4)C3)c2cc1OC (stereo not shown) [Compound 7, 1-[3-(4-Dimethylamino-phenyl)-piperazin-1-yl]-6,7-dimethoxy-isoquinoline-4-carbonitrile] | 76 |
| COc1cc2c(C#N)cnc(N3CCNC(c4ccc5c(c4)OCO5)C3)c2cc1OC (stereo not shown) [Compound 8, 1-(3-Benzo[1,3]dioxol-5-yl-piperazin-1-yl)-6,7-dimethoxy-isoquinoline-4-carbonitrile] | 81 |
| COc1cc2c(C#N)cnc(N3CCNC(c4cccc([N+](=O)[O-])c4)C3)c2cc1OC (stereo not shown) [Compound 9, 6,7-Dimethoxy-1-[3-(3-nitro-phenyl)-piperazin-1-yl]-isoquinoline-4-carbonitrile] | 120 |
| COc1cc2c(C#N)cnc(N3CCNC(c4ccc5ccccc5c4)C3)c2cc1OC (stereo not shown) [Compound 10, 6,7-Dimethoxy-1-(3-naphthalen-2-yl-piperazin-1-yl)-isoquinoline-4-carbonitrile] | 73 |
| COc1cc(OC)cc(C2CN(c3ncc(C#N)c4cc(OC)c(OC)cc34)CCN2)c1 (stereo not shown) [Compound 11, 1-[3-(3,5-Dimethoxy-phenyl)-piperazin-1-yl]-6,7-dimethoxy-isoquinoline-4-carbonitrile] | 41 |
| COc1ccc(OC)c(C2CN(c3ncc(C#N)c4cc(OC)c(OC)cc34)CCN2)c1 (stereo not shown) [Compound 12, 1-[3-(2,5-Dimethoxy-phenyl)-piperazin-1-yl]-6,7-dimethoxy-isoquinoline-4-carbonitrile] | 42 |
| COc1cc2c(C#N)cnc(N3CCNC(c4ccc(C(F)(F)F)cc4)C3)c2cc1OC (stereo not shown) [Compound 13, 6,7-Dimethoxy-1-[3-(4-trifluoromethyl-phenyl)-piperazin-1-yl]-isoquinoline-4-carbonitrile] | 160 |
| COc1cc2c(C#N)cnc(N3CCNC(c4cc(Cl)ccc4Cl)C3)c2cc1OC (stereo not shown) [Compound 14, 1-[3-(2,5-Dichloro-phenyl)-piperazin-1-yl]-6,7-dimethoxy-isoquinoline-4-carbonitrile] | 650 |
| COc1cc2c(C#N)cnc(N3CCNC(c4ccc(Cl)cc4Cl)C3)c2cc1OC (stereo not shown) [Compound 15, 1-[3-(2,4-Dichloro-phenyl)-piperazin-1-yl]-6,7-dimethoxy-isoquinoline-4-carbonitrile] | 520 |

| Compound | IC50 [nM] |
| --- | --- |
| COc1cc2c(C#N)cnc(N3CCNC(c4ccc(N5CCOCC5)cc4)C3)c2cc1OC (stereo not shown) [Compound 16, 6,7-Dimethoxy-1-[3-(4-morpholin-4-yl-phenyl)-piperazin-1-yl]-isoquinoline-4-carbonitrile] | 76 |
| COc1cc2c(C#N)cnc(N3CCNC(c4cc(F)c(Cl)cc4Cl)C3)c2cc1OC (stereo not shown) [Compound 17, 1-[3-(2,4-Dichloro-5-fluoro-phenyl)-piperazin-1-yl]-6,7-dimethoxy-isoquinoline-4-carbonitrile] | 1000 |
| COc1ccc(C2CN(c3ncc(C#N)c4cc(OC)c(OC)cc34)CCO2)cc1 (stereo not shown) [Compound 18, 6,7-Dimethoxy-1-[2-(4-methoxy-phenyl)-morpholin-4-yl]-isoquinoline-4-carbonitrile] | 97 |
| COc1cc2c(C#N)cnc(N3CCOC(c4ccc(C)cc4)C3)c2cc1OC (stereo not shown) [Compound 19, 6,7-Dimethoxy-1-(2-p-tolyl-morpholin-4-yl)-isoquinoline-4-carbonitrile] | 580 |
| COc1cc2c(C#N)cnc(N3CCOC(c4ccc(Cl)cc4)C3)c2cc1OC (stereo not shown) [Compound 20, 1-[2-(4-Chloro-phenyl)-morpholin-4-yl]-6,7-dimethoxy-isoquinoline-4-carbonitrile] | 800 |
| COc1cc2c(C#N)cnc(N3CCOC(c4ccccc4Cl)C3)c2cc1OC (stereo not shown) [Compound 21, 1-[2-(2-Chloro-phenyl)-morpholin-4-yl]-6,7-dimethoxy-isoquinoline-4-carbonitrile] | 530 |
| COc1cc2c(C#N)cnc(N3CCOC(c4ccc(C(F)(F)F)cc4)C3)c2cc1OC (stereo not shown) [Compound 22, 6,7-Dimethoxy-1-[2-(4-trifluoromethyl-phenyl)-morpholin-4-yl]-isoquinoline-4-carbonitrile] | 1600 |
| COc1cc2c(C#N)cnc(N3CCNC(c4ccc(C)cc4)C3)c2cc1OC (stereo not shown) [Compound 25, 6,7-Dimethoxy-1-(3-p-tolyl-piperazin-1-yl)-isoquinoline-4-carbonitrile] | 300 |
| COc1cc2c(C#N)cnc(N3CCNC(c4cccc(Cl)c4)C3)c2cc1OC (stereo not shown) [Compound 26, 1-[3-(3-Chloro-phenyl)-piperazin-1-yl]-6,7-dimethoxy-isoquinoline-4-carbonitrile] | 390 |
| COc1cc2c(C#N)cnc(N3CCNC(c4ccc(Br)cc4)C3)c2cc1OC (stereo not shown) [Compound 27, 1-[3-(4-Bromo-phenyl)-piperazin-1-yl]-6,7-dimethoxy-isoquinoline-4-carbonitrile] | 510 |
| COc1ccc2cc(C3CN(c4ncc(C#N)c5cc(OC)c(OC)cc45)CCN3)ccc2c1 (stereo not shown) [Compound 28, 6,7-Dimethoxy-1-[3-(6-methoxy-naphthalen-2-yl)-piperazin-1-yl]-isoquinoline-4-carbonitrile] | 330 |
| COc1cc2c(C#N)cnc(N3CCSC(c4ccccc4)C3)c2cc1OC (stereo not shown) [Compound 29, 6,7-Dimethoxy-1-(2-phenyl-thiomorpholin-4-yl)-isoquinoline-4-carbonitrile] | 2500 |
| COc1cc2c(C#N)cnc(N3CCNC(c4ccc(Cl)cc4)C3)c2cc1OC (stereo not shown) [Compound 30, 1-[3-(4-Chloro-phenyl)-piperazin-1-yl]-6,7-dimethoxy-isoquinoline-4-carbonitrile] | 700 |
| COc1cc2c(N3CCNC(c4ccc(C)cc4)C3)nc(C)c(C#N)c2cc1OC (stereo not shown) [Compound 31, 6,7-Dimethoxy-3-methyl-1-(3-p-tolyl-piperazin-1-yl)-isoquinoline-4-carbonitrile] | 1000 |
| COc1ccc(C2CN(c3nc(C)c(C#N)c4cc(OC)c(OC)cc34)CCN2)cc1 (stereo not shown) [Compound 32, 6,7-Dimethoxy-1-[3-(4-methoxy-phenyl)-piperazin-1-yl]-3-methyl-isoquinoline-4-carbonitrile] | 290 |
| COc1cc2c(N3CCNC(c4ccc5ccccc5c4)C3)nc(C)c(C#N)c2cc1OC (stereo not shown) [Compound 33, 6,7-Dimethoxy-3-methyl-1-(3-naphthalen-2-yl-piperazin-1-yl)-isoquinoline-4-carbonitrile] | 2100 |
| COc1cc2c(N3CCNC(c4cccc5ccccc45)C3)nc(C)c(C#N)c2cc1OC (stereo not shown) [Compound 34, 6,7-Dimethoxy-3-methyl-1-(3-naphthalen-1-yl-piperazin-1-yl)-isoquinoline-4-carbonitrile] | 880 |
